The supplement of paper PMC11451515

Tested on: P12-Ichikawa
Experiment: cell viability relative to DMSO control; higher = less cytotoxic
Settings: 48 h
How it was run: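 Viability is a per-plate percentage relative to DMSO wells, with cell-free wells as background. CellTiter-Glo One luminescence was read after 48 h at 37°C on 1536-well plates (5 μl) of NOMO1 or SEM (500 cells/well) or P12-Ichikawa (1000 cells/well) leukemia cells. The cells had been adapted for at least four passages in each medium and pin-dosed with library compounds in DMSO from 47 μM to 0.79 nM in 11 threefold steps.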

[1] = HPLM + 10% dialyzed FBS, 0.000781 µM
[2] = HPLM + 10% dialyzed FBS, 0.00234 µM
[3] = HPLM + 10% dialyzed FBS, 0.00702 µM
[4] = HPLM + 10% dialyzed FBS, 0.0211 µM
[5] = HPLM + 10% dialyzed FBS, 0.0632 µM
[6] = HPLM + 10% dialyzed FBS, 0.19 µM
[7] = HPLM + 10% dialyzed FBS, 0.569 µM
[8] = HPLM + 10% dialyzed FBS, 1.71 µM
[9] = HPLM + 10% dialyzed FBS, 5.12 µM
[10] = HPLM + 10% dialyzed FBS, 15.4 µM
[11] = HPLM + 10% dialyzed FBS, 46.1 µM
[12] = RPMI 5 mM glucose + 10% FBS, 0.000781 µM
[13] = RPMI 5 mM glucose + 10% FBS, 0.00234 µM
[14] = RPMI 5 mM glucose + 10% FBS, 0.00702 µM
[15] = RPMI 5 mM glucose + 10% FBS, 0.0211 µM
[16] = RPMI 5 mM glucose + 10% FBS, 0.0632 µM
[17] = RPMI 5 mM glucose + 10% FBS, 0.19 µM
[18] = RPMI 5 mM glucose + 10% FBS, 0.569 µM
[19] = RPMI 5 mM glucose + 10% FBS, 1.71 µM
[20] = RPMI 5 mM glucose + 10% FBS, 5.12 µM
[21] = RPMI 5 mM glucose + 10% FBS, 15.4 µM
[22] = RPMI 5 mM glucose + 10% FBS, 46.1 µM
[23] = RPMI 5 mM glucose + 10% dialyzed FBS, 0.000781 µM
[24] = RPMI 5 mM glucose + 10% dialyzed FBS, 0.00234 µM
[25] = RPMI 5 mM glucose + 10% dialyzed FBS, 0.00702 µM
[26] = RPMI 5 mM glucose + 10% dialyzed FBS, 0.0211 µM
[27] = RPMI 5 mM glucose + 10% dialyzed FBS, 0.0632 µM
[28] = RPMI 5 mM glucose + 10% dialyzed FBS, 0.19 µM
[29] = RPMI 5 mM glucose + 10% dialyzed FBS, 0.569 µM
[30] = RPMI 5 mM glucose + 10% dialyzed FBS, 1.71 µM
[31] = RPMI 5 mM glucose + 10% dialyzed FBS, 5.12 µM
[32] = RPMI 5 mM glucose + 10% dialyzed FBS, 15.4 µM
[33] = RPMI 5 mM glucose + 10% dialyzed FBS, 46.1 µM

Row | SMILES | cell viability [1] | cell viability [2] | cell viability [3] | cell viability [4] | cell viability [5] | cell viability [6] | cell viability [7] | cell viability [8] | cell viability [9] | cell viability [10] | cell viability [11] | cell viability [12] | cell viability [13] | cell viability [14] | cell viability [15] | cell viability [16] | cell viability [17] | cell viability [18] | cell viability [19] | cell viability [20] | cell viability [21] | cell viability [22] | cell viability [23] | cell viability [24] | cell viability [25] | cell viability [26] | cell viability [27] | cell viability [28] | cell viability [29] | cell viability [30] | cell viability [31] | cell viability [32] | cell viability [33]
1 | Clc1ccc(CCC(Cn2ccnc2)Sc2c(Cl)cccc2Cl)cc1 (configuration not stated) | 92.8% | 92.5% | 96% | 90.2% | 93.9% | 102% | 101% | 94.7% | 91.9% | 91.2% | 91.5% | 90% | 94.6% | 96% | 103% | 99.8% | 94.8% | 87.8% | 96% | 91.1% | 91.9% | 63.2% | 81.1% | 72.8% | 84.4% | 95.1% | 84.6% | 86.4% | 90.1% | 83.7% | 89.1% | 90.1% | 64.7%
2 | COC(=O)CCC1=C(C)C2=CC3=NC(=CC4=C(C)C(=C([NH]4)C=C\5N=C(C=C1[NH]2)\C(=C5C)CCC(O)=O)C=C)\C6=C\C=C(/[C@@H](C(=O)OC)[C@@]36C)C(=O)OC | 98.8% | 103% | 101% | 111% | 102% | 105% | 109% | 106% | 101% | 98.7% | 93.3% | 93.3% | 101% | 104% | 100% | 97.1% | 100% | 103% | 96.8% | 88.9% | 77.1% | 60.9% | 88% | 94.7% | 97.8% | 95.6% | 103% | 96.9% | 105% | 104% | 94.6% | 84.9% | 82.9%
3 | CCOC(=O)c1c(CSc2ccccc2)n(C)c2cc(Br)c(O)c(CN(C)C)c12 | 121% | 119% | 128% | 126% | 123% | 127% | 118% | 115% | 124% | 115% | 109% | 118% | 127% | 122% | 126% | 128% | 123% | 125% | 112% | 112% | 113% | 73.5% | 121% | 119% | 125% | 129% | 123% | 118% | 127% | 118% | 124% | 113% | 76.3%
4 | O=C1\C=C(OC2=C(C=CC=C12)C3=CC=CC4=C3SC5=C4C=CC=C5)\N6CCOCC6 | 119% | 125% | 127% | 129% | 137% | 130% | 130% | 131% | 129% | 132% | 121% |  |  |  |  |  |  |  |  |  |  |  |  |  |  |  |  |  |  |  |  |  | 
5 | O=C(CCCN1CCC(O)(c2ccc(Cl)cc2)CC1)c1ccc(F)cc1 | 105% | 107% | 109% | 116% | 119% | 123% | 111% | 111% | 119% | 127% | 107% | 106% | 112% | 111% | 124% | 124% | 132% | 116% | 126% | 124% | 131% | 95.9% | 108% | 114% | 117% | 111% | 116% | 131% | 115% | 115% | 119% | 112% | 99.8%
6 | Cc1nnc(C(C)C)n1[C@@H]1C[C@H]2CC[C@@H](C1)N2CC[C@H](NC(=O)C1CCC(F)(F)CC1)c1ccccc1 | 88.3% | 99.8% | 107% | 111% | 105% | 102% | 113% | 110% | 101% | 89.1% | 63.8% | 85% | 90.2% | 94.3% | 100% | 95.9% | 103% | 107% | 99.4% | 104% | 92% | 59.2% | 71.4% | 96% | 89.1% | 101% | 94.5% | 105% | 97.4% | 103% | 101% | 81.1% | 48.3%
7 | O=C1c2ccccc2-c2n[nH]c3cccc1c23 | 96.5% | 102% | 107% | 111% | 107% | 108% | 81% | 106% | 80% | 46.6% | 12.8% | 106% | 109% | 107% | 113% | 109% | 111% | 84.6% | 106% | 68.4% | 48.9% | 10.7% | 98.1% | 97.2% | 98.5% | 108% | 112% | 100% | 87.6% | 101% | 78% | 62.3% | 16.4%
8 | O=C(O)c1cccc(-c2noc(-c3ccccc3F)n2)c1 | 99.7% | 106% | 104% | 100% | 102% | 105% | 102% | 98.6% | 101% | 100% | 95.3% | 96.5% | 98.2% | 97.5% | 106% | 106% | 106% | 101% | 98.7% | 90.9% | 93% | 92.7% | 102% | 105% | 94.9% | 103% | 103% | 97.1% | 95.1% | 102% | 90.6% | 102% | 98.7%
